# Measurements taken from ChEMBL document CHEMBL4725292 (J Med Chem, 2020).
# What was measured:
# [1] = Lipophilicity, logD of the compound at pH 7.4 by chromatographic method; assay type: physicochemical; conditions: buffer
# [2] = target: Bromodomain-containing protein 4 (Homo sapiens, UniProt O60885, Y97A); assay: Displacement of Alexa Fluor 647 labelled ligand from His6-tagged BRD4 BD2 (1 to 477 residues)/BD1 Y97A mutant (unknown origin) after 30 mins by TR-FRET assay
# [3] = system: Bromodomain-containing protein 4 (Homo sapiens), O60885 [UNDEFINED MUTATION]; assay: Selectivity index, […] for His6-thr-tagged BRD4 BD1 (1 to 477 residues)/BD2 Y390A mutant (unknown origin) to pIC50 for His6-tagged BRD4 BD2 (1 to 477 residues)/BD1 Y97A mutant (unknown origin)
# [4] = target: Bromodomain-containing protein 4 (Homo sapiens, UniProt O60885, Y390A); assay: Displacement of Alexa Fluor 647 labelled ligand from His6-thr-tagged BRD4 BD1 (1 to 477 residues)/BD2 Y390A mutant (unknown origin) after 30 mins by TR-FRET assay
Compound,chromatographic logD [1],IC50 [2] [nM],Selectivity Index [3],IC50 [4] [nM]
CO[C@H]1CNC[C@@H](OCC2CCC(F)(F)CC2)[C@@H]1Nc1ncc(-c2cncc(C)c2)c2cc(C)c(=O)[nH]c12,3.17,,,
Cc1cc2c(-c3cnn(C)c3)cnc(N[C@@H]3CCN(C)C[C@H]3C(=O)NC3CCCCC3)c2[nH]c1=O,2.43,20000,251,79.4
Cc1coc(-c2cnc(N[C@@H]3CCN(C)C[C@H]3C(=O)NC3CCCCC3)c3[nH]c(=O)c(C)cc23)c1,4.46,20000,501,39.8
Cc1ccc(-c2cnc(N[C@@H]3CCN(C)C[C@H]3C(=O)NC3CCCCC3)c3[nH]c(=O)c(C)cc23)o1,4.33,15800,631,25.1
Cc1ccc(-c2cnc(N[C@@H]3CCN(C)C[C@H]3C(=O)NC3CCCCC3)c3[nH]c(=O)c(C)cc23)s1,5.3,> 50100,> 794,63.1
Cc1csc(-c2cnc(N[C@@H]3CCN(C)C[C@H]3C(=O)NC3CCCCC3)c3[nH]c(=O)c(C)cc23)c1,5.27,15800,316,50.1
Cc1cc2c(C3=CCCC3)cnc(N[C@@H]3CCNC[C@H]3C(=O)NC3CCCCC3)c2[nH]c1=O (mixture of isomers),4.4,39800,200,200
Cc1cc2c(-c3ccccc3)cnc(N[C@@H]3CCNC[C@H]3C(=O)NC3CCCCC3)c2[nH]c1=O (mixture of isomers),3.36,25100,40,631
Cc1cc2c(C3=CCOCC3)cnc(N[C@@H]3CCNC[C@H]3C(=O)NC3CCCCC3)c2[nH]c1=O (mixture of isomers),2.07,39800,30,1260
Cc1cc2c(-c3cnn(C)c3)cnc(N[C@@H]3CCNC[C@H]3C(=O)NC3CCCCC3)c2[nH]c1=O (mixture of isomers),1.47,15800,100,158
Cc1cc2c(-c3ccsc3)cnc(N[C@@H]3CCNC[C@H]3C(=O)NC3CCCCC3)c2[nH]c1=O (mixture of isomers),3.79,> 50100,> 501,100
C/C=C/c1cnc(N[C@@H]2CCNC[C@H]2C(=O)NC2CCCCC2)c2[nH]c(=O)c(C)cc12 (racemic),3.55,31600,250,126
Cc1cc2c(-c3cccs3)cnc(N[C@@H]3CCNC[C@H]3C(=O)NC3CCCCC3)c2[nH]c1=O (racemic),3.23,31600,630,50.1

# Further lines, results first:
chromatographic logD [1],IC50 [2] [nM],Selectivity Index [3],IC50 [4] [nM],Compound
3.12,10000,,1580,Cc1cc2c(-c3ccco3)cnc(N[C@H]3CCNC[C@@H]3C(=O)NC3CCCCC3)c2[nH]c1=O
4.35,15800,316,50.1,Cc1ccoc1-c1cnc(N[C@@H]2CCN(C)C[C@H]2C(=O)NC2CCCCC2)c2[nH]c(=O)c(C)cc12
4.61,3980,251,15.8,Cc1cc2c(-c3cccs3)cnc(N[C@@H]3CCN(C)C[C@H]3C(=O)NC3CCCCC3)c2[nH]c1=O
4.78,12600,10,1000,Cc1cc2c(C3=CCCCC3)cnc(N[C@@H]3CCNC[C@H]3C(=O)NC3CCCCC3)c2[nH]c1=O (mixture of isomers)
2.91,12600,316,39.8,Cc1cc2c(-c3ccoc3)cnc(N[C@@H]3CCNC[C@H]3C(=O)NC3CCCCC3)c2[nH]c1=O (mixture of isomers)
